Experimental data taken from US20220331303A1, “USE OF AN OREXIN 2 RECEPTOR AGONIST FOR THE TREATMENT OF EXCESSIVE SLEEPINESS” (Takeda Pharmaceutical Company Limited, priority 2019, published 2022).
“And” between values parts separate entries of the source, which are not always exact repeats. Identical values can stand only once.

Test system: sleep-deprived healthy volunteers
Experiment: Maintenance of wakefulness test (MWT) in sleep-deprived healthy volunteers
Type: in vivo, human
Method: The primary objective of this study was to determine the effect of Compound A (methyl (2R,3S)-3-((methylsulfonyl)amino)-2-(((cis-4-phenylcyclohexyl)oxy)methyl)piperidine-1-carboxylate), 44 mg (low dose [LD]) and 112 mg (high dose [HD]), after a single IV dose (compared to placebo) on promoting wakefulness as measured by sleep latency on the MWT (performed at approximately 2, 4, 6, and 8 hours post-dosing starting at approximately 1:00 AM and then at approximate times of 3:00, 5:00, and 7:00 AM) in sleep-deprived healthy volunteers.
This was a phase 1b, single-center, randomized, double-blind, double-dummy, placebo- and active-controlled, 4-period Williams design crossover study to evaluate the PK, PD, and safety of Compound A in sleep-deprived healthy volunteers. Compound A was administered as a 9-hour IV infusion.
Healthy adult male subjects aged 18 to 40 years, inclusive, who satisfied the inclusion and exclusion criteria were enrolled in the trial. On Day 1 of treatment period 1, eligible subjects were equally randomized to 4 treatment sequence groups (sequence 1 to 4) which defined the order of administration for Compound A LD, Compound A HD (both delivered as a 9-hour IV infusion), modafinil 300 mg, and placebo.
During the day before dosing on Day 1, participants were administered the KSS at scheduled timepoints. A practice MWT session was performed on Day 1 treatment period 1 (only once during the entire study) to familiarize subjects with the procedures. Study drug was administered in the clinic in the evening on Day 1 of each treatment period. Subjects underwent the MWT and KSS at specified timepoints after the start of the infusion. Subjects were required to stay awake between the MWT tests. Following completion of the IV infusion on Day 2, subjects underwent an additional MWT test. When the final MWT test and cognitive testing were completed, subjects were allowed to sleep (recovery sleep) for approximately 6 hours. PSG recording was collected during this time. Subjects were discharged from the unit after completion on Day 2 with continuing actigraphy upon discharge (to begin on Day −6 before the next treatment period). The interval between each subsequent treatment period was at least 7 days to ensure that the subject's circadian rhythm had returned to a normal cycle. Subject's vital signs, including BP, were monitored during the dosing and testing period. Blood samples for determination of Compound A plasma concentrations were collected at specified timepoints on Days 1 and 2 of each treatment period. Subjects completed the Columbia-Suicide Severity Rating Scale (C-SSRS) during screening, before study drug administration, and before discharge on Day 2 of each treatment period.
Primary endpoint: Latency for each MWT, defined as time to sleep onset.

[1] = Compound A 44 mg (LD), 2 hours post infusion start
[2] = Compound A 44 mg (LD), 4 hours post infusion start
[3] = Compound A 44 mg (LD), 6 hours post infusion start
[4] = Compound A 44 mg (LD), 8 hours post infusion start
[5] = Compound A 44 mg (LD), average overall during infusion
[6] = Compound A 44 mg (LD, printed ED), 2 hours post infusion start
[7] = Compound A 44 mg (LD, printed ED), 4 hours post infusion start
[8] = Compound A 44 mg (LD, printed ED), 8 hours post infusion start
[9] = Compound A 44 mg, after the end of infusion (1 hour post end of infusion)
[10] = Compound A 112 mg (HD), 2 hours post infusion start
[11] = Compound A 112 mg (HD), 4 hours post infusion start

`COC(=O)N1CCC[C@H](NS(C)(=O)=O)[C@@H]1CO[C@H]1CC[C@@H](c2ccccc2)CC1` [Compound A, methyl (2R,3S)-3-((methylsulfonyl)amino)-2-(((cis-4-phenylcyclohexyl)oxy)methyl)piperidine-1-carboxylate] was tested, and the “Average total wake time (MWT), LS mean difference vs placebo” value (Compound A 44 mg) was 16.36 min, the “Total sleep time (MWT) compared to placebo” value (Compound A 44 mg) was “not significantly different than placebo” and the “Latency to Sleep Onset on MWT, LS Mean” value [1] was 35.74 min. The “Latency to Sleep Onset on MWT, LS Mean Difference vs placebo” value [1] was 20.06 min, the “Stage N1 Duration (MWT), LS Mean” value [1] was 0.13 min and the “Stage N1 Duration (MWT), LS Mean Difference vs placebo” value [1] was -1.02 min. For the same compound, the “Stage N2 Duration (MWT), LS Mean” value [1] was 0.24 min, the “Stage N2 Duration (MWT), LS Mean Difference vs placebo” value [1] was -0.61 min and the “Total Microsleeps (MWT), LS Mean” value [1] was 0.38. The “Total Microsleeps (MWT), LS Mean Difference vs placebo” value [1] was −1.42, the “Duration Total Microsleeps (MWT), LS Mean” value [2] was 10.39 s and the “Duration Total Microsleeps (MWT), LS Mean Difference vs placebo” value [2] was -1.91 s. The “Stage N1 Duration (MWT), LS Mean” value [2] was 0.52 min, the “Stage N1 Duration (MWT), LS Mean Difference vs placebo” value [2] was -1.13 min and the “Stage N2 Duration (MWT), LS Mean” value [2] was 0.51 min. The “Stage N2 Duration (MWT), LS Mean Difference vs placebo” value [2] was -0.64 min, the “Total Microsleeps (MWT), LS Mean” value [2] was 2.21 and the “Total Microsleeps (MWT), LS Mean Difference vs placebo” value [2] was −0.14. The “Duration Total Microsleeps (MWT), LS Mean” value [3] was 11.84 s, the “Duration Total Microsleeps (MWT), LS Mean Difference vs placebo” value [3] was 4.44 s and the “Latency to Sleep Onset on MWT, LS Mean” value [3] was 20.71 min. For the same compound, the “Latency to Sleep Onset on MWT, LS Mean Difference vs placebo” value [3] was 14.56 min, the “Stage N1 Duration (MWT), LS Mean” value [3] was 1.80 min and the “Stage N1 Duration (MWT), LS Mean Difference vs placebo” value [3] was 0.65 min. The “Stage N2 Duration (MWT), LS Mean” value [3] was 2.63 min, the “Stage N2 Duration (MWT), LS Mean Difference vs placebo” value [3] was 2.13 min and the “Total Microsleeps (MWT), LS Mean” value [3] was 2.32. The “Total Microsleeps (MWT), LS Mean Difference vs placebo” value [3] was 1.07, the “Latency to Sleep Onset on MWT, LS Mean” value [4] was 13.13 min and the “Latency to Sleep Onset on MWT, LS Mean Difference vs placebo” value [4] was 9.60 min. For the same compound, the “Stage N1 Duration (MWT), LS Mean” value [4] was 1.57 min, the “Stage N1 Duration (MWT), LS Mean Difference vs placebo” value [4] was 0.42 min and the “Stage N2 Duration (MWT), LS Mean” value [4] was 3.74 min. The “Stage N2 Duration (MWT), LS Mean Difference vs placebo” value [4] was 2.64 min, the “Total Microsleeps (MWT), LS Mean” value [4] was 2.10 and the “Total Microsleeps (MWT), LS Mean Difference vs placebo” value [4] was 0.80. For the same compound, the “Duration Total Microsleeps (MWT), LS Mean” value [5] was 8.89 s, the “Duration Total Microsleeps (MWT), LS Mean Difference vs placebo” value [5] was -0.18 s and the “Latency to Sleep Onset on MWT, LS Mean” value [5] was 25.40 min and 25.40 (1.955) min. For the same compound, the “Latency to Sleep Onset on MWT, LS Mean Difference vs placebo” value [5] was 16.79 min and 16.8 min and 16.79 (2.682) min, the “Stage N1 Duration (MWT), LS Mean” value [5] was 1.01 min and the “Stage N1 Duration (MWT), LS Mean Difference vs placebo” value [5] was -0.27 min. The “Stage N2 Duration (MWT), LS Mean” value [5] was 1.78 min, the “Stage N2 Duration (MWT), LS Mean Difference vs placebo” value [5] was 0.88 min and the “Total Microsleeps (MWT), LS Mean” value [5] was 1.75. The “Total Microsleeps (MWT), LS Mean Difference vs placebo” value [5] was 0.08, the “Duration Total Microsleeps (MWT), LS Mean” value [6] was 1.61 s and the “Duration Total Microsleeps (MWT), LS Mean Difference vs placebo” value [6] was -7.19 s. The “Latency to Sleep Onset on MWT, LS Mean” value [7] was 32.04 min, the “Latency to Sleep Onset on MWT, LS Mean Difference vs placebo” value [7] was 22.94 min and the “Duration Total Microsleeps (MWT), LS Mean” value [8] was 11.72 s. The “Duration Total Microsleeps (MWT), LS Mean Difference vs placebo” value [8] was 3.92 s, the “Latency to Sleep Onset on MWT, LS Mean (SE)” value [9] was 2.49 (2.241) and the “Latency to Sleep Onset on MWT, LS Mean Difference vs placebo, Estimate (SE)” value [9] was −2.16 (2.752). The “Average total wake time (MWT), LS mean difference vs placebo” value (Compound A 112 mg) was 29.59 min, the “Sleep latency on the MWT during infusion, stayed across several sessions” value (Compound A 112 mg) was 40 min and the “Total sleep time (MWT), LS mean difference vs placebo” value (Compound A 112 mg) was -2.56 min. For the same compound, the “Duration Total Microsleeps (MWT), LS Mean” value [10] was -0.02 s, the “Duration Total Microsleeps (MWT), LS Mean Difference vs placebo” value [10] was -8.82 s and the “Latency to Sleep Onset on MWT, LS Mean” value [10] was 40.02 min. The “Latency to Sleep Onset on MWT, LS Mean Difference vs placebo” value [10] was 24.35 min, the “Stage N1 Duration (MWT), LS Mean” value [10] was -0.04 min and the “Stage N1 Duration (MWT), LS Mean Difference vs placebo” value [10] was -1.19 min. The “Stage N2 Duration (MWT), LS Mean” value [10] was 0.00 min, the “Stage N2 Duration (MWT), LS Mean Difference vs placebo” value [10] was -0.85 min and the “Total Microsleeps (MWT), LS Mean” value [10] was 0.00. For the same compound, the “Total Microsleeps (MWT), LS Mean Difference vs placebo” value [10] was −1.80, the “Duration Total Microsleeps (MWT), LS Mean” value [11] was -0.02 s and the “Duration Total Microsleeps (MWT), LS Mean Difference vs placebo” value [11] was -12.3 s. For the same compound, the “Latency to Sleep Onset on MWT, LS Mean” value [11] was 40.05 min, the “Latency to Sleep Onset on MWT, LS Mean Difference vs placebo” value [11] was 30.95 min and the “Stage N1 Duration (MWT), LS Mean” value [11] was -0.04 min. For the same compound, the “Stage N1 Duration (MWT), LS Mean Difference vs placebo” value [11] was -1.69 min and the “Stage N2 Duration (MWT), LS Mean” value [11] was 0.00 min.
